According to ChEMBL document CHEMBL1136027, “Design, synthesis and structure-activity relationships of novel imidazolo[1,2-a]pyrimid-5-ones as potent GnRH receptor antagonists” (Bioorg Med Chem Lett, 2002):

Legend:
[1] = biological target: T1, Gonadotropin-releasing hormone receptor (Homo sapiens, UniProt P30968); assay: Binding evaluated in cloned human Gonadotropin-releasing hormone receptor by displacement of [125 I-Tyr, DLeu, NMeLeu, Pro-NEt]GnRH agonist
T1 sequence (P30968 whole entry): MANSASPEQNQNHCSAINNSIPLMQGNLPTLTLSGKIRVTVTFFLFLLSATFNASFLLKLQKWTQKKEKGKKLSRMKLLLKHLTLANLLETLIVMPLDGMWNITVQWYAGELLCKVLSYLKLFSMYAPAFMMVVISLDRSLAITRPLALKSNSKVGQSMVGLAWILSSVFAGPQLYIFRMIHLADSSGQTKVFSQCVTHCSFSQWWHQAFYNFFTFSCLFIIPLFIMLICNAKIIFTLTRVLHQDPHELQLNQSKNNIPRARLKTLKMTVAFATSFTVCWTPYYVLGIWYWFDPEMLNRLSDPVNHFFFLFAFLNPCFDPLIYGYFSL

[2] = Half-life in rat plasma was determined; assay type: ADME, organism-based

Ki ([1]; read-out: Ki)	Structure (SMILES)	also measured
56 nM	COc1ccc(-c2nc3n(Cc4ccccc4F)c(C)c(-c4cccc(S)c4)c(=O)n3c2CN(C)CCc2ccccn2)cc1	
11 nM	COc1ccc(-c2nc3n(Cc4ccccc4F)c(C)c(-c4ccc5c(c4)OCO5)c(=O)n3c2CN(C)CCc2ccccn2)cc1	
28000 nM	COc1ccc(-c2nc3n(Cc4ccccc4F)c(C)c(-c4ccc5c(c4)OCO5)c(=O)n3c2CN2CCOCC2)cc1	
67 nM	COc1ccc(-c2nc3n(Cc4ccccc4F)c(C)c(-c4ccc5c(c4)OCO5)c(=O)n3c2CN(C)CCc2ccccc2F)cc1	
47 nM	COc1ccc(-c2nc3n(Cc4ccccc4F)c(C)c(-c4ccc5c(c4)OCO5)c(=O)n3c2CN(C)Cc2ccccc2)cc1	
18 nM	COc1ccc(-c2nc3n(Cc4ccccc4F)c(C)c(-c4ccc(OC)cc4)c(=O)n3c2CN(C)CCc2ccccn2)cc1	
140 nM	COc1ccc(-c2nc3n(Cc4ccccc4F)c(C)c(-c4cccc(C(F)(F)F)c4)c(=O)n3c2CN(C)CCc2ccccn2)cc1	
220 nM	CCCCN(C)Cc1c(-c2ccc(OC)cc2)nc2n(Cc3ccccc3F)c(C)c(-c3ccc4c(c3)OCO4)c(=O)n12	
370 nM	COc1ccc(-c2nc3n(Cc4ccccc4F)c(C)c(-c4cc(OC)c(OC)c(OC)c4)c(=O)n3c2CN(C)CCc2ccccn2)cc1	
110 nM	COc1ccc(-c2nc3n(Cc4ccccc4F)c(C)c(-c4ccc5c(c4)OCO5)c(=O)n3c2CN(C)CCc2ccccc2)cc1	
65 nM	COc1ccc(-c2nc3n(Cc4ccccc4F)c(C)c(-c4ccccc4OC)c(=O)n3c2CN(C)CCc2ccccn2)cc1	

The remaining lines, values behind:

Structure (SMILES)	Ki ([1]; read-out: Ki)	also measured
COc1ccc(-c2nc3n(Cc4ccccc4F)c(C)c(-c4ccc5c(c4)OCO5)c(=O)n3c2CN(C)C2CCN(C)CC2)cc1		Ki [1]: Not Active
COc1ccc(-c2nc3n(Cc4ccccc4F)c(C)c(-c4cccc(OC)c4)c(=O)n3c2CN(C)CCc2ccccn2)cc1	4.6 nM	
COc1ccc(-c2nc3n(Cc4ccccc4F)c(C)c(-c4ccc5c(c4)OCO5)c(=O)n3c2CN2CCCN(C)CC2)cc1	9500 nM	
COc1ccc(-c2nc3n(Cc4ccccc4F)c(C)c(-c4cc(Cl)cc(Cl)c4)c(=O)n3c2CN(C)CCc2ccccn2)cc1	100 nM	
CCC(CC)OC(=O)c1cn(Cc2ccccc2F)c2nc(-c3ccc(OC)cc3)c(CN(C)CCc3ccccn3)n2c1=O	230 nM	
CCC(CC)OC(=O)c1cn(Cc2ccccc2F)c2cc(-c3ccc(NC(C)=O)cc3)c(CN(C)CCc3ccccn3)n2c1=O		half-life [2]: 28 min
COCCN(C)Cc1c(-c2ccc(OC)cc2)nc2n(Cc3ccccc3F)c(C)c(-c3ccc4c(c3)OCO4)c(=O)n12	150 nM	
CCN(CC)CCN(C)Cc1c(-c2ccc(OC)cc2)nc2n(Cc3ccccc3F)c(C)c(-c3ccc4c(c3)OCO4)c(=O)n12	130 nM	
COc1ccc(-c2nc3n(Cc4ccccc4F)c(C)c(Br)c(=O)n3c2CN(C)CCc2ccccn2)cc1	2500 nM	
COc1ccc(-c2nc3n(Cc4ccccc4F)c(C)c(-c4ccc(OC)c(OC)c4)c(=O)n3c2CN(C)CCc2ccccn2)cc1	110 nM	
COc1ccc(-c2nc3n(Cc4ccccc4F)c(C)c(-c4ccc5c(c4)OCO5)c(=O)n3c2CN(C)CCc2ccncc2)cc1	1400 nM	
COc1ccc(-c2nc3n(Cc4ccccc4F)c(C)c(-c4cccc(F)c4)c(=O)n3c2CN(C)CCc2ccccn2)cc1	79 nM	
